# Reference: patent US20250237628A1, “CELL SELECTION AND/OR STIMULATION DEVICES AND METHODS OF USE” (Juno Therapeutics GmbH, priority 2019, published 2025)
# Experiments:
# [1] = test system: CD4+ and CD8+ T cells; experiment: Viable cells in engineered T cell composition over the process; format: cell-based, human; conditions: presence vs absence of compound 63 in the process
# Experimental: (§1) CD4+ and CD8+ T cells were isolated by immunoaffinity-based enrichment from leukapheresis samples from human donor subjects. […] The T cells cultured with our without Compound 63 were incubated overnight (approximately 24 hr) at 37° C., and were then transduced in serum-free culture media with our without Compound 63 ([…]) with a lentiviral vector encoding an anti-CD19 CAR. […] Following transduction, the cells were incubated in serum free media without recombinant cytokines (basal media) and with or without Compound 63 (1 mM) and allowed to incubate at about 37.0° C. in an incubator for up to 96 hours after initiation of the stimulation with the anti-CD3/anti-CD28 oligomeric stimulatory reagent (until day 5 of the process). […] The cryofrozen engineered CD4+ and CD8+ T cells were thawed, and T cells were assessed for intracellular S6 phosphorylation, a ribosomal protein and marker of mTOR inhibition, and co-stained for surface expression of CD4 or CD8 and for CCR7 and CD45RA as markers of memory subsets. pS6 expression in live CD8+ T cells by memory subsets was shown by the expression of CCR7 and CD45RA as shown in FIG. 16A. As shown, incubation with Compound 63 decreased the mean fluorescence intensity of stimulated memory T cell subsets, […], indicating an inhibition of mTOR, while having no significant effect on the percentage or total number of viable cells over time.
# [2] = test system: mTOR; experiment: Intracellular S6 phosphorylation (marker of mTOR inhibition) in engineered T cells; format: cell-based, human; conditions: live CD8+ T cells, Temra, Tem subsets; cells produced with vs without Compound 63
# Experimental: as §1
# [3] = test system: anti-CD19 CAR T cells; experiment: Long-term stimulation over 12 days with anti-idiotype antibody beads, expansion and survival; format: cell-based, human; conditions: anti-ID beads, cells produced in presence vs absence of compound 63
# Experimental: CD4+ and CD8+ T cells were isolated by immunoaffinity-based enrichment from leukapheresis samples from human donor subjects. At day 1, isolated CD4+ and CD8+ T cells were mixed 1:1 and stimulated with an anti-CD3/anti-CD28 oligomeric stimulatory reagent generated as described in Example 1 in serum-free media supplemented with recombinant IL-2 (100 IU/mL), recombinant IL-7 (600 IU/mL), and recombinant IL-15 (100 IU/mL) with or without 1 μM of 2-(3-hydroxyphenyl)-9-(2-isopropylphenyl)-8-oxo-8,9-dihydro-7H-purine-6-carboxamide (Compound 63). The T cells cultured with our without Compound 63 were incubated overnight (approximately 24 hr) at 37° C., and were then transduced in serum-free culture media with our without Compound 63 ([…]) with a lentiviral vector encoding an anti-CD19 CAR. The CAR contained an scFv antigen-binding domain specific for CD19 (derived from FMC63), a CD28 transmembrane region, a 4-1BB costimulatory signaling region, and a CD3-zeta derived intracellular signaling domain. […]
# To further assess the functional activity of the cells, the generated T cell compositions were stimulated long-term over 12 days with beads conjugated with an anti-idiotype (ID) antibody against the anti-CD19 CAR, and expansion and survival of the cells were monitored (FIG. 17F, left panel) and total expansion metric calculated by area under the growth curve (FIG. 17F, right panel, AUC).
# [4] = test system: CAR-T cells; experiment: Intracellular caspase expression (marker of apoptosis) in thawed CAR-T cells; format: cell-based, human; conditions: incubated with vs without compound 63
# [5] = test system: CD4+ and CD8+ T cells; experiment: Intracellular cytokines following stimulation with PMA/Ionomycin and a Golgi inhibitor; format: cell-based, human; conditions: engineered CD8+ and CD4+ T cells produced in presence of Compound 63
# [6] = test system: CD4+ and CD8+ T cells; experiment: Surface expression of CD27 and CCR7 by flow cytometry (phenotypic subset profile); format: cell-based, human; conditions: thawed
# [7] = molecular target: Strep-Tactin® (mutein streptavidin, e.g. SEQ ID NO: 4) (Streptomyces avidinii, UniProt P22629, E68V/S69T/V71R); conditions: background statement, no experiment described; read-out: KD of binding to Strep-Tactin®; cited from earlier work
# Strep-Tactin® (mutein streptavidin, e.g. SEQ ID NO: 4), sequence (P22629 other isoform, or with tags, fused parts or gaps E68V/S69T/V71R): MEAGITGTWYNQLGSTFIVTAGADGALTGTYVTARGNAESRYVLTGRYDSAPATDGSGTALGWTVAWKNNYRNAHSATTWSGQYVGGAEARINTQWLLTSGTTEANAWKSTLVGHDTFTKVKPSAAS
Compound,percent viable cells [1],total live cells [1],mean fluorescence intensity of pS6 in memory T cell subsets [2],function (expansion) following long-term CAR-specific stimulation [3],intracellular caspase expression [4],"level of intracellular cytokines IL2, IFNg, or TNF [5]",phenotypic subset profile by CD27 and/or CCR7 expression [6],Kd [7] [nM]
"CC(C)c1ccccc1-n1c(=O)[nH]c2c(C(N)=O)nc(-c3cccc(O)c3)nc21 [Compound 63, 2-(3-hydroxyphenyl)-9-(2-isopropylphenyl)-8-oxo-8,9-dihydro-7H-purine-6-carboxamide]",did not impact,did not impact,decreased,improved function,less intracellular caspase expression,substantially improved,did not substantially alter,–
WSHPQFEK [Strep-Tag® II],–,–,–,–,–,–,–,~1000
